What all share (assay): DTP human tumour cell line panel, 48 h
The test system of assay [1] is 786-0.
Assay [2] relates to ACHN.
The test system of assay [3] is CAKI-1.
Assay [4] concerns HCT-116.
The subject of assay [5] is LOX IMVI.
Assay [6] deals with MDA-MB-231.
For assay [7], the system named is MDA-MB-435.
In assay [8] the test system is MDA-N.
The test system of assay [9] is Malme-3M.
Assay [10] concerns NCI-H226.
The subject of assay [11] is NCI-H23.
For assay [12], the system named is NCI-H460.
In assay [13] the test system is NCI/ADR-RES.
In assay [14] the test system is OVCAR-3.
Assay [15] deals with SF-268.
Assay [16] concerns SN12C.
The subject of assay [17] is SR.
For assay [18], the system named is SW-620.
The test system of assay [19] is UACC-62.
Assay [20] has as its system SK-MEL-5.

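Interpolation was linear, between the two tested concentrations surrounding the appropriate level; five concentrations were tested over 48 hours in 96-well plates. Here, GI50 denotes the concentration required for 50% inhibition of growth.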 Active and inactive are the calls of the source. Rule as the data show it: active = GI50 up to about 1.1 µM and inactive = higher.

With `FC(F)(F)c1ccc2nc3n(c2c1)C(c1c(Cl)cccc1Cl)SC3` (stereo not drawn), the GI50 (in general, the concentration at which growth is held to half of that of the control) in assay [1] is 14.7 µM (inactive); in assay [2], 15.9 µM (inactive); in [3], 14.8 µM (inactive); in assay [4], 10.5 µM (inactive); in assay [5], 27.6 µM (inactive); in assay [6], 18.1 µM (inactive). The GI50 is 15 µM (inactive) in assay [7]; 11.7 µM (inactive) in [8]; 13.3 µM (inactive) in assay [9]; 17.3 µM (inactive) in assay [10]; 15.1 µM (inactive) in [11]; 14.5 µM (inactive) in [12]. Moreover, the GI50 in [13] was 11.3 µM (inactive); in assay [14], 15.6 µM (inactive); in assay [15] it was 21.6 µM (inactive); in [16], 18.1 µM (inactive); in assay [17], 4.24 µM (inactive); in [18], 17.8 µM (inactive). For the same compound, the GI50 in assay [19] is 14.5 µM (inactive).

In the case of `CSc1ncc2c(C#N)c3ccccn3c(=O)c2n1`, the GI50 is > 100 µM (inactive) in assay [1]; > 100 µM (inactive) in [2]; > 100 µM (inactive) in assay [3]; 88.5 µM (inactive) in [4]; > 100 µM (inactive) in [5]; > 100 µM (inactive) in assay [6]. Also, the GI50 in assay [7] was > 100 µM (inactive); in assay [8], > 100 µM (inactive); in assay [9] it was > 100 µM (inactive); in assay [10], > 100 µM (inactive); in assay [11] it was > 100 µM (inactive); in assay [12], 57.3 µM (inactive). For the same compound, the GI50 in assay [13], in assay [14], in [15], in assay [20], in assay [16] and in assay [17] was > 100 µM (inactive) each time. The values for the GI50 in assay [18] and in assay [19] were 52.6 µM (inactive) and > 100 µM (inactive), respectively.

Regarding `CCOC(=O)C1C(O)CC2c3ccccc3-c3ccccc3C21` (stereo not drawn), the GI50 was 30.4 µM (inactive) in assay [1]; 27.3 µM (inactive) in assay [2]; > 100 µM (inactive) in [3]; 19.8 µM (inactive) in [4]; > 100 µM (inactive) in [5]; 25.9 µM (inactive) in assay [6]. In addition, the GI50 was 41.8 µM (inactive) in assay [7]; 69 µM (inactive) in assay [8]; > 100 µM (inactive) in assay [9]; 3.2 µM (inactive) in assay [10]; 42.5 µM (inactive) in [11]; > 100 µM (inactive) in assay [12]. In addition, the GI50 in assay [13] was 40.5 µM (inactive); in assay [14], > 100 µM (inactive); in assay [15], 31.4 µM (inactive); in assay [20] it was 50.5 µM (inactive); in [16], > 100 µM (inactive); in [17], > 100 µM (inactive). Besides, the GI50 was 48.4 µM (inactive) in assay [18] and 44.4 µM (inactive) in assay [19].

Consider `CCOC(=O)NN(C(=O)OCC)C(=C(c1ccccc1)N1CCOCC1)N(NC(=O)OCC)C(=O)OCC`, for which the GI50 in [1], in assay [2], in [3], in assay [4], in assay [5] and in [6] was > 100 µM (inactive) throughout. The GI50 in assay [7], in assay [8], in assay [9], in [10], in [11] and in assay [12] was > 100 µM (inactive) each time. Also, the GI50 in assay [13], in assay [14], in [15], in [20], in assay [16] and in assay [17] was > 100 µM (inactive) in each case. In addition, the GI50 in assay [18] and in assay [19] was > 100 µM (inactive) throughout.

Take `Cc1c2cc[n+]([O-])cc2c(C)c2c1[nH]c1ccccc12`: the GI50 was 2.74 µM (inactive) in [1]; 1.94 µM (inactive) in assay [2]; 7.05 µM (inactive) in assay [3]; 1.39 µM (inactive) in assay [4]; 1.67 µM (inactive) in assay [5]; 4.28 µM (inactive) in assay [6]. In addition, the GI50 in [7] was 6.61 µM (inactive); in assay [8], 4.15 µM (inactive); in assay [9] it was 8.95 µM (inactive); in [10], 5.37 µM (inactive); in [11], 6.04 µM (inactive); in assay [12] it was 2.45 µM (inactive). The GI50 in [13] is 20.8 µM (inactive); in [14] it was 12.5 µM (inactive); in [15] it was 4.9 µM (inactive); in [20], 6.85 µM (inactive); in [16], 4.93 µM (inactive); in assay [17] it was 1.29 µM (inactive). Further, the GI50 in [18] is 1.87 µM (inactive); in assay [19], 7.14 µM (inactive).

For the compound `Cc1ccc(S(=O)(=O)N/N=C2\C=CC3(CC2)C(=O)N(I)c2ccccc23)cc1` (stereo not drawn), the GI50 in [1] is > 100 µM (inactive); in assay [2] it was > 100 µM (inactive); in [3] it was > 100 µM (inactive); in [4], 87.5 µM (inactive); in assay [5] it was > 100 µM (inactive); in assay [6], 58.7 µM (inactive). Also, the GI50 in assay [7] is > 100 µM (inactive); in assay [8], 83 µM (inactive); in assay [9], 0.055 µM (active); in [10], > 100 µM (inactive); in assay [11], > 100 µM (inactive); in assay [12], 94.4 µM (inactive). Further, the GI50 was > 100 µM (inactive) in [13]; > 100 µM (inactive) in assay [14]; 90.6 µM (inactive) in [15]; > 100 µM (inactive) in [20]; > 100 µM (inactive) in assay [16]; 86.9 µM (inactive) in [17]. The GI50 in [18] and in assay [19] was > 100 µM (inactive) throughout.

Take `O=C(c1cc2c(c3ccccc13)NC1(CCCCC1)N=C2C(F)(F)F)C(F)(F)F`: the GI50 in assay [1] was 3.82 µM (inactive); in [2], 3.63 µM (inactive); in assay [3], 3.35 µM (inactive); in assay [4], 3.3 µM (inactive); in assay [5], 3.33 µM (inactive); in assay [6] it was 3.14 µM (inactive). In addition, the GI50 in [7] is 3.23 µM (inactive); in [8] it was 3.72 µM (inactive); in [9], 5.27 µM (inactive); in assay [10], 4.41 µM (inactive); in assay [11] it was 3.83 µM (inactive); in assay [12] it was 3.27 µM (inactive). The GI50 in assay [13] is 4.53 µM (inactive); in assay [14], 2.85 µM (inactive); in assay [15], 5.85 µM (inactive); in [20], 5.74 µM (inactive); in assay [16] it was 3.66 µM (inactive); in [17], 3.6 µM (inactive). Moreover, the GI50 in [18] was 4.7 µM (inactive); in assay [19], 3.78 µM (inactive).

Regarding `CN1CCN(C2=NCCO2)CC1`, the GI50 in assay [1], in assay [2], in [3], in [4], in assay [5] and in [6] was > 100 µM (inactive) throughout. Further, the GI50 in assay [7], in [8], in assay [9], in assay [10], in assay [11] and in assay [12] was > 100 µM (inactive) throughout. The GI50 in [13], in assay [14], in assay [15], in assay [20], in [16] and in [17] was > 100 µM (inactive) throughout. In addition, the GI50 in assay [18] and in [19] was > 100 µM (inactive) each time.

For the compound `COc1cc(C2c3[nH]c4ccccc4c3[C@@H](Nc3ccc(C#N)cc3)[C@H]3COC(=O)N23)cc(OC)c1O` (stereo partly drawn), the GI50 in assay [1] was 0.0908 µM (active); in assay [2], 0.155 µM (active); in assay [3], 0.213 µM (active); in assay [4], 0.233 µM (active); in assay [5], 0.0962 µM (active); in assay [6], 0.372 µM (active). The GI50 is 0.388 µM (active) in assay [7]; 0.376 µM (active) in [8]; 0.279 µM (active) in assay [9]; 0.19 µM (active) in assay [10]; 0.238 µM (active) in assay [11]; 0.0288 µM (active) in assay [12]. The GI50 in assay [13] was 9.98 µM (inactive); in assay [14], 0.441 µM (active); in [15], 0.208 µM (active); in [20] it was 0.132 µM (active); in assay [16], 0.186 µM (active); in [17] it was 0.0113 µM (active). Besides, the 50% growth inhibitory concentration (GI50) in assay [18] was 0.122 µM (active); in assay [19] it was 0.114 µM (active).

Regarding `O=C(CNc1ccccc1[N+](=O)[O-])Nn1cnc2ccc(S(=O)(=O)Nc3ccccc3[N+](=O)[O-])cc2c1=O`, the GI50 in [1], in assay [2], in [3], in assay [4], in assay [5] and in assay [6] was > 100 µM (inactive) throughout. Moreover, the GI50 in assay [7], in [8], in assay [9], in assay [10], in assay [11] and in [12] was > 100 µM (inactive) in each case. Moreover, the GI50 in assay [13], in assay [14], in [15], in [16], in assay [17] and in assay [18] was > 100 µM (inactive) in each case. Also, the GI50 in [19] is > 100 µM (inactive).
